Values quoted from earlier work as cited in patent publication US20090054331A1, “HIGH TEMPERATURE STABLE PEPTIDE FORMULATION” (priority 2007, published 2009).

How the values were obtained:
[1] = tested on: human osteoblasts
[2] = in vivo
[3] = tested on: human dental pulp cells; settings: in vitro
[4] = tested on: human dental defects; settings: clinical trial

Sequence: TDLQERGDNDISPFSGDGQPFKD [AC-100]
- effect on proliferation, differentiation and mineralization of human osteoblasts [1]: stimulate proliferation, differentiation, and mineralization
- bone formation activities [2]: has shown bone formation activities in vivo
- proliferation of human dental pulp cells [3]: stimulation of the proliferation
- formation of new dentin [4]: formation of new dentin
